Source: patent US20230035479A1, “METHODS AND COMPOSITIONS FOR REDUCING HAIR GREYING” (President and Fellows of Harvard College, priority 2019, published 2023)
Like-named read-outs stand apart in the source and are kept apart here.

Tests used:
C57BL/6J mice = assay type: in vivo, mouse
[1] = test system: Phospho-CREB (a downstream effector of ADRB2); test: Phospho-CREB immunofluorescence in hair follicles; assay type: in vivo, mouse; conditions: 12 hours after RTX injection; not in mature melanocytes
Experimental: It was then considered whether ADRB2 might mediate the impact of stress on MeSCs.
(§1) Mouse skin samples were fixed using 4% paraformaldehyde (PFA) for 15 minutes at room temperature, washed 6 times with PBS, and immersed in 30% sucrose overnight at 4° C. Samples were then embedded in OCT (Sakura Finetek). 35˜50 μm sections were fixed in 4% paraformaldehyde (PFA) for 2 minutes and washed with PBS and PBST. Slides were then blocked using blocking buffer (5% donkey serum; 1% BSA, 2% cold water fish gelatin in 0.3% Triton in PBS) for 1 hour at room temperature, followed by staining with primary antibodies overnight at 4° C. and secondary antibody for 4 hours at room temperature. For sympathetic nerve density quantification, 90 μm sections were used. EdU was developed for 1 hour using the Click-It reaction according to manufacturer instructions (Thermo Fisher Scientific). TUNEL assay was performed according to manufacturer instructions (Roche). Fontana—Masson staining was performed according to manufacturer instructions (Market Lab ML7255). […]

mature melanocytes = test: Differentiated/mature melanocytes and hair bulb cells, immunofluorescence; assay type: in vivo, mouse
Experimental: Loss of hair pigmentation can be due to defects in melanin synthesis, loss of differentiated melanocytes, or problems in MeSC maintenance. To understand how stress impacts the melanocyte lineage, RTX was injected into mice in anagen, when both MeSCs and differentiated melanocytes were present but located within distinct compartments—MeSCs were near to the bulge while differentiated melanocytes were at the hair bulb (FIG. 1E). […] These differentiated melanocytes continued to generate pigments, and the hair coat remained black (FIGS. 6F-6G). When hair follicles in the RTX-injected animals entered catagen and telogen, many have lost all MeSCs (FIG. 1E, Telo). Subsequently, when the next round of anagen initiated, differentiated melanocytes were not produced to color new hair shafts, and unpigmented hairs emerged (FIG. 1E, 2nd Ana, FIG. 6H). […] In this case, unpigmented hairs appeared as soon as new hairs emerged in the following anagen (FIGS. 7A-7B). […] MeSCs were also lost or reduced in mice subjected to restraint stress or chronic unpredictable stress (FIG. 7C). Since stress depleted MeSCs, the loss of hair pigmentation in all three conditions was permanent (FIG. 7D).
Quiescence is a key feature of many somatic stem cells. Loss of quiescence has been postulated to cause MeSC loss in Bcl2 mutants. To examine if stress alters MeSCs quiescence, RTX or norepinephrine was injected into mice that had entered full anagen, when MeSCs are normally quiescent. A dramatic increase in the number of proliferating MeSCs was seen within 24 hours after RTX or norepinephrine injection—about 50% of MeSCs became positive for Phospho-Histone H3, an M phase marker (FIG. 4B). This number is in sharp contrast to the MeSC proliferation seen in early anagen (˜6%), the only stage when MeSCs proliferate to self-renew (FIG. 11E).
Mouse skin samples were fixed using 4% paraformaldehyde (PFA) for 15 minutes at room temperature, washed 6 times with PBS, and immersed in 30% sucrose overnight at 4° C. Samples were then embedded in OCT (Sakura Finetek). 35˜50 μm sections were fixed in 4% paraformaldehyde (PFA) for 2 minutes and washed with PBS and PBST. Slides were then blocked using blocking buffer (5% donkey serum; 1% BSA, 2% cold water fish gelatin in 0.3% Triton in PBS) for 1 hour at room temperature, followed by staining with primary antibodies overnight at 4° C. and secondary antibody for 4 hours at room temperature. For sympathetic nerve density quantification, 90 μm sections were used. EdU was developed for 1 hour using the Click-It reaction according to manufacturer instructions (Thermo Fisher Scientific). TUNEL assay was performed according to manufacturer instructions (Roche). Fontana—Masson staining was performed according to manufacturer instructions (Market Lab ML7255). Antibodies used: TRP2 (Santa Cruz 10451, 1:800), tyrosine hydroxylase (rabbit, Millipore AB152, 1:1000 or sheep, Millipore AB1542, 1:150-1:300), c-Fos (Abcam, 190289, 1:1000), γ-H2AX (Cell Signaling, 9718, 1:400), phospho-histone H3 (rabbit, Cell Signaling Technology 3377S, 1:500), cleaved caspase 3 (rabbit, Cell Signaling Technology 9664S, 1:400), GFP (rabbit, Abcam ab290, 1:1000 or chicken, Ayes labs GFP-1010, 1:200), CD3 (eBioscience 14-0032-81, 1:800), CD11b (eBioscience 14-0112-81, 1:800), Phospho-CREB (Cell Signaling 9198, 1:800), MITF (Abcam ab12039, 1:400).

[2] = Fontana-Masson melanin staining; assay type: in vivo, mouse; conditions: 5 days after RTX injection
Experimental: They also began to depart from the bulge—some migrated downwards along the hair follicle, and some migrated out into dermis or epidermis (FIG. 4C, D2 and D3). By Day 3, many GFP positive cells had migrated out of the bulge, and by Day 4, many hair follicles had lost all GFP positive cells in the bulge.
as §1

[3] = test system: melanocyte stem cells (MeSCs); test: MeSC numbers in hair follicles, TRP2 immunofluorescence or membrane GFP tracing
Experimental: For RTX injection, mice received injections of RTX (30-100 μg/kg) in the flank for 1-3 days as described previously [15, 16, 51-56]. […] Control mice were treated with the vehicle only. RTX injection was done either in full anagen (P31-P36) or in 1st telogen (P21). […] Mice were treated for three days (P28-P30). […] RTX was given at Anagen VI (P31˜P36).

**Q.** What does the source list for `C=C(C)[C@]12C[C@@H](C)[C@@]34O[C@](Cc5ccccc5)(O[C@@H]1[C@@H]3C=C(COC(=O)Cc1ccc(O)c(OC)c1)C[C@]1(O)C(=O)C(C)=C[C@@H]41)O2` [RTX, resiniferatoxin]?
**A.** hair greying (unpigmented hairs) (C57BL/6J mice; C57BL/6J mice, next hair cycle after RTX injection): many new hairs formed in the next hair cycle following RTX injection became unpigmented; extent of hair greying, male vs female (C57BL/6J mice; RTX injection, male and female mice): same extent of hair greying in both male and female mice; white hair formation (C57BL/6J mice; RTX into CD11b-DTR mice, myeloid lineages ablated by diphtheria toxin): still resulted in white hair formation; hair greying (C57BL/6J mice; RTX into RIPK3 mutant mice): still caused hair greying; white hair formation (C57BL/6J mice; RTX into Rag1 mutant mice lacking T and B cells): still resulted in white hair formation; hair greying (C57BL/6J mice; RTX into Tyr-CreER, GR fl/fl mice (MeSC-GR cKO)): still resulted in hair greying; hair greying (C57BL/6J mice; RTX into adrenalectomized mice): still caused hair greying; white hair formation (C57BL/6J mice; RTX, ADRB2 depleted from MeSCs using Tyr-CreER): white hairs failed to form; hair greying (C57BL/6J mice; RTX, ADRB2 depleted from hair follicle stem cells): still resulted in hair greying; Phospho-CREB in MeSCs [1]: marked induction of Phospho-CREB; differentiated melanocytes in the same hair follicle (mature melanocytes; 5 days after RTX injection in anagen): remained unperturbed; proliferation or apoptosis in mature melanocytes (mature melanocytes; after injection, full anagen): no changes in proliferation or apoptosis; ectopic pigmentation [2]: ectopic pigmentation could be detected along the hair follicle, epidermis, and dermis; MeSC loss ([3]; RTX injected during telogen): caused MeSC loss; time to complete loss of MeSCs from the bulge in many hair follicles ([3]; RTX injected in anagen): ≤ 5 days; TRP2+ MeSC number ([3]; RTX injected in anagen, entire skin): significantly reduced; GFP positive cells (traced MeSCs) ([3]; Tyr-CreER, Rosa-mT/mG mice, shortly after RTX injection (D1)): transient increase in GFP positive cells
